In patent publication US20070020244A1, “Fiber constructs and process of fiber fabrication” (The Johns Hopkins University, priority 2005, published 2007):

Tested on: PC12 cells
Assay: PC12 bioassay of NGF released from fiber
Assay type: cell-based
Settings: for time period of significant cell differentiation: supernatant with released NGF
From the text: Nerve growth factor (NGF) was used as the model protein to investigate if incorporation of protein into the fibre compromises its bioactivity. The bioactivity of the released NGF was confirmed by its ability to differentiate PC12 cells, and in a dose-dependent manner. (FIG. 2C) At the increasing loading concentrations of NGF indicated, significant cell differentiation could be observed for time periods of up to 3 d, 5 d and 7 d, respectively. In all cases, the minimum concentration of NGF required to induce neurite outgrowth appeared to be in the region of 0.5 ng/mL, which agrees well with the literature. See, Physiological Reviews 60, 1284-1335 (1980).
Encapsulation of recombinant human β-NGF (MW 13,200, R&D Systems) was performed in the same way as described for BSA. Ring-spooled fibers were incubated in RPMI media over a period of 1 week, during which supernatants were collected for the PC12 bioassay and NGF ELISA (DuoSet ELISA Development System for human β-NGF, R&D Systems).

In the case of “NGF: Recombinant human β-NGF (MW 13,200, R&D Systems), model protein encapsulated in and released from the fiber”, the “minimum concentration of NGF required to induce neurite outgrowth” value (NGF released from fiber, PC12 cells) is reported as roughly 0.5 ng/mL, the “time period of significant cell differentiation” value (loading concentration 66 ng/mL) is reported as “up to 3 d” and the “time period of significant cell differentiation” value (loading concentration 86 ng/mL) is reported as no more than 5 days. The “time period of significant cell differentiation” value (loading concentration 112 ng/mL) was no more than 7 days.
